Laboratory results taken from patent publication US8586719B2, “Triterpenes for modulating gene expression and cell membrane, and as antiprotozoal agents” (Pacific Arrow Limited, priority 2005, dated 2013).
Converted amounts (≈) assume the structure as drawn. Like-named read-outs stand apart in the source and are kept apart here.

Tests used:
[1] = system: Leishmania Major (promastigotes); test: Cell growth of Leishmania parasites by MTT assay; type: cell-based; details: for IC50: Leishmania major, read-out: IC50, cytotoxic to Leishmania Major (promastigotes)
Description: Method: Leishmania parasites (Leishmania major: MRHO/SU/59/P/LV39) were grown in culture medium in a T75 flask at room temperature. Promastigotes of Leishmania major (approximately 40 million per ml) were used in the experiment. 1.2 ml cell culture was transferred to a well of the 24-wells plate. Saponin Y10 (0.2 ml in medium) with different concentrations (final 6.25-200 ug/ml) was added to culture and cells were grown for 1-5 days at room temperature. At the end of drug-treatment, 150 ul of MTT (5 mg/ml in PBS) was added to each well and incubated for 4 hours. Formazan formed in cells was dissolved with DMSO and the OD at 490 nm was determined by an ELISA reader.

[2] = system: cancer cells; test: Anticancer activity of alkaline-hydrolysed saponins (cells not stated); type: cell-based; details: after removal of acyl groups by alkaline hydrolysis
[3] = system: Fibronectin; test: Fibronectin secretion from ES2 cells; type: cell-based, human
Description: (§1) Reduction of Fibronectin secretion from ES2 cells after xanifolia-Y treatment. • (Results of F1, F3, F4, F5, F7, F8, F11, F12A, F15, F16, F17) Data in PCT/US2008/002086, 1188-ALA-PCT, filed Feb. 15, 2008 are incorporated herein by reference • (F11) For lung carcinoma cells (H460), at concentration of 20 ug/ml, there are inhibitions of Fibronectin secretion ranged from 20-60%. • (F12A) For bladder carcinoma cells (HTB-9), Xanifolia-Y (10 ug/ml) inhibits 50% of Fibronectin secretion. • (F15) In liver HepG2 cells. 10 ug/ml of xanifolia-Y inhibits 42% secretion of Fibronectin. • (F16) Incubation of brain glioblastoma T98G cells with 10 ug/ml of xanifolia-Y inhibits 27% Fibronectin secretion and with 20 ug/ml Y inhibits 74% Fibronectin secretion. • (F17) For skin SK-MeI-5 cells, the inhibition is 40-57% with 20 ug/ml of Xanifolia-Y.

[4] = system: Fibronectin; test: Fibronectin secretion, lung carcinoma cells (H460); type: cell-based, human; details: Lung H460; concentration 10 (label suffix)
Description: as §1

[5] = system: Fibronectin; test: Fibronectin secretion, bladder carcinoma cells (HTB-9); type: cell-based, human; details: Bladder HTB-9; 10 ug/ml (table: label suffix -10)
Description: as §1

[6] = system: Fibronectin; test: Fibronectin secretion, liver HepG2 cells; type: cell-based, human; details: 10 ug/ml (table: label suffix -10)
Description: as §1

[7] = system: Fibronectin; test: Fibronectin secretion, brain glioblastoma T98G cells; type: cell-based, human; details: Brain T98G; 10 ug/ml (table: label suffix -10)
Description: as §1

[8] = system: Fibronectin; test: Fibronectin secretion, skin SK-MEL-5 cells; type: cell-based, human; details: Skin SK-MEL-5; concentration 10 (label suffix)
Description: as §1

[9] = concentration 10 (label suffix; text uses ug/ml)

C/C=C(/C)C(=O)O[C@@H]1C(O)[C@H](O[C@H]2[C@H](OC(C)=O)[C@@]3(CO)C(CC2(C)C)C2=CCC4[C@@]5(C)CC[C@H](O[C@@H]6OC(C(=O)O)[C@@H](O)[C@@H](O[C@@H]7O[C@@H](CO)[C@@H](O)C7O)C6O[C@@H]6OC(CO)[C@H](O)[C@@H](O)C6O)C(C)(C)C5CC[C@@]4(C)[C@]2(C)C[C@H]3O)OC(C)[C@@H]1OC(=O)/C(C)=C\C (stereo partly drawn) [Y1, 3-O-[β-D-galactopyranosyl (1→2)]-α-L-arabinofuranosyl(1→3)-β-D-glucuronopyranosyl-21-O-(3,4-diangeloyl)-α-L-rhamnophyranosyl-22-O-acetyl-3β,16α, 21β, 22α, 28-pentahydroxyolean-12-ene]
IC50 [1]: 23 µg/mL (≈ 17.5 µM)

C/C=C(/C)C(=O)O[C@H]1[C@H](OC(=O)/C(C)=C/C)[C@@]2(CO)C(CC1(C)C)C1=CCC3[C@@]4(C)CC[C@H](O[C@@H]5OC(C(=O)O)[C@@H](O)C(O[C@@H]6OC[C@@H](O)C(O)C6O)C5O[C@@H]5OC(CO)[C@H](O)C(O)C5O)C(C)(C)C4CC[C@@]3(C)[C@]1(C)C[C@H]2O (stereo partly drawn) [Z12, 3-O-[β-D-galactopyranosyl(1→2)]-β-D-xylopyranosyl(1→3)-β-D-glucuronopyranosyl-21-O-angeloyl, 22-O-tigloyl-3β, 16α, 21β, 22α, 28-pentahydroxyolean-12-ene]
IC50, cytotoxic to Leishmania Major (promastigotes) ([1]; MTT assay, promastigotes): 23 µg/mL (≈ 20.4 µM)

CC1O[C@@H](OC2[C@H](OC3[C@H](O[C@H]4C(O[C@@H]5OC(CO)[C@H](O)[C@@H](O)C5O)[C@H](O[C@H]5CC[C@@]6(C)C(CC[C@]7(C)C6CC[C@]68O[C@H](O)[C@]9(C6CC(C)(C)[C@@H](O)[C@@H]9O)[C@H](O)C[C@]87C)C5(C)C)OC(C(=O)O)[C@H]4O)OC(CO)[C@H](O)[C@H]3O)OC(C)[C@H](O)[C@@H]2O)C(O)[C@@H](O)[C@H]1O (stereo partly shown) [AKOH-Mb5]
anticancer activity [2]: lost anticancer activity
cytotoxic to Leishmania Major (promastigotes) ([1]; MTT assay, promastigotes): not cytotoxic
% inhibition of Fibronectin secretion ([3]; concentration 40 (label suffix)): No effect

CC=C(C)C(=O)OC1C(OC(=O)c2ccccc2)C(C)(C)CC2C3=CCC4C5(C)CCC(OC6OC(C(=O)OC)C(O)C(OC7OCC(O)C(O)C7O)C6OC6OC(CO)C(O)C(O)C6O)C(C)(C)C5CCC4(C)C3(C)CC(O)C21CO (stereo not shown) [Ba4]
% inhibition of Fibronectin secretion [3, 9]: 28%
% inhibition of Fibronectin secretion [4]: 18%
% inhibition of Fibronectin secretion [5]: 30%
% inhibition of Fibronectin secretion [6]: 28%
% inhibition of Fibronectin secretion [7]: 24%
% inhibition of Fibronectin secretion [8]: 10%

C/C=C(/C)C(=O)O[C@H]1[C@H](O)[C@@]2(COC(=O)C(C)CC)C(CC1(C)C)C1=CCC3[C@@]4(C)CC[C@H](O[C@@H]5OC(C(=O)O)[C@@H](O)C(O[C@@H]6O[C@@H](CO)C(O)C6O)C5O[C@@H]5OC(CO)[C@H](O)C(O)C5O)C(C)(C)C4CC[C@@]3(C)[C@]1(C)[C@@H](O)[C@H]2O (stereo partly drawn) [Y7, 3-O-[β-D-galactopyranosyl-(1→2)]-α-L-arabinofuranosyl-(1→3)-β-D-glucuronopyranosyl-21-O-angeloyl-28-O-2-methylbutanoyl-3β, 15α, 16α, 21β, 22α, 28-hexahydroxyolean-12-ene]
IC50, cytotoxic to Leishmania Major (promastigotes) ([1]; MTT assay, promastigotes): 18 µg/mL (≈ 15.7 µM)
% inhibition of Fibronectin secretion [3, 9]: 34%

C/C=C(/C)C(=O)O[C@H]1[C@H](OC(=O)/C(C)=C\C)[C@@]23C(CC1(C)C)[C@]1(CCC4[C@@]5(C)CC[C@H](O)C(C)(C)C5CC[C@@]4(C)[C@]1(C)C[C@H]2O)O[C@@H]3O (stereo partly shown) [ACH-Mb5]
IC50 ([1]; MTT assay, promastigotes): 18 µg/mL (≈ 26.8 µM)

CC=C(C)C(=O)OC1C(OC(=O)C(C)=CC)C23C(O)CC4(C)C5(C)CCC6C(C)(C)C(OC7OC(C(=O)O)C(O)C(OC8OC(CO)C(O)C(O)C8OC8OC(C)C(O)C(O)C8OC8OC(C)C(O)C(O)C8O)C7OC7OC(CO)C(O)C(O)C7O)CCC6(C)C5CCC4(OC2O)C3CC1(C)C (stereo not shown) [Mb5]
IC50, cytotoxic to Leishmania Major (promastigotes) ([1]; MTT assay, promastigotes): 15 µg/mL (≈ 10.2 µM)
% inhibition of Fibronectin secretion [3, 9]: 35%
% inhibition of Fibronectin secretion [4]: 25%
% inhibition of Fibronectin secretion [5]: 28%
% inhibition of Fibronectin secretion [6]: 35%
% inhibition of Fibronectin secretion [7]: 33%
% inhibition of Fibronectin secretion [8]: 15%

C/C=C(/C)C(=O)O[C@H]1[C@H](OC(=O)/C(C)=C\C)[C@@]2(CO)C(CC1(C)C)C1=CCC3[C@@]4(C)CC[C@H](O[C@@H]5OC(C(=O)O)[C@@H](O)C(O[C@@H]6OC[C@@H](O)C(O)C6O)C5O[C@@H]5OC(CO)[C@H](O)C(O)C5O)C(C)(C)C4CC[C@@]3(C)[C@]1(C)C[C@H]2O (stereo partly drawn) [Ba1, 3-O-[β-D-galactopyranosyl(1→2)]-β-D-xylopyranosyl(1→3)-β-D-glucuronopyranosyl-21-O-angeloyl, 22-O-angeloyl-3β, 15α, 21β, 22α, 28-pentahydroxyolean-12-ene]
IC50, cytotoxic to Leishmania Major (promastigotes) ([1]; MTT assay, promastigotes): 15 µg/mL (≈ 13.3 µM)
% inhibition of Fibronectin secretion [3, 9]: 30%
% inhibition of Fibronectin secretion [4]: 19%
% inhibition of Fibronectin secretion [5]: 25%
% inhibition of Fibronectin secretion [6]: 33%
% inhibition of Fibronectin secretion [7]: 26%
% inhibition of Fibronectin secretion [8]: 10%

CC1(C)CC2C3=CCC4[C@@]5(C)CC[C@H](O[C@@H]6OC(C(=O)O)[C@@H](O)[C@@H](O[C@@H]7O[C@@H](CO)C(O)[C@@H]7O)C6O[C@@H]6OC(CO)[C@H](O)[C@@H](O)C6O)C(C)(C)C5CC[C@@]4(C)[C@]3(C)[C@@H](O)[C@@H](O)[C@@]2(CO)[C@@H](O)[C@@H]1O (stereo partly shown) [AKOH-Y]
anticancer activity [2]: lost anticancer activity
cytotoxic to Leishmania Major (promastigotes) ([1]; MTT assay, promastigotes): not cytotoxic

C/C=C(/C)C(=O)O[C@H]1[C@H](OC(=O)/C(C)=C\C)[C@@]2(CO)C(CC1(C)C)C1=CCC3[C@@]4(C)CC[C@H](O[C@@H]5OC(C(=O)O)[C@@H](O)C(O)C5O[C@@H]5OC(CO)[C@H](O)C(O)C5O)C(C)(C)C4CC[C@@]3(C)[C@]1(C)[C@@H](O)[C@H]2O (stereo partly shown) [Y5]
IC50, cytotoxic to Leishmania Major (promastigotes) ([1]; MTT assay, promastigotes): 16 µg/mL (≈ 15.9 µM)

C/C=C(/C)C(=O)O[C@H]1[C@H](OC(C)=O)C(C)(C)CC2C3=CCC4[C@@]5(C)CC[C@H](O[C@@H]6OC(C(=O)OCCCC)[C@@H](O)C(O[C@@H]7O[C@@H](CO)C(O)C7O)C6O[C@@H]6OC(CO)[C@H](O)C(O)C6O)C(C)(C)C5CC[C@@]4(C)[C@]3(C)C[C@@H](O)[C@]21CO (stereo partly drawn) [X, 3-O-{[β-D-galactopyranosyl(1→2)]-[α-L-arabinofuranosyl(1→3)]-β-D-glucuronopyranosidebutyl ester}-21-O-acetyl-22-O-angeloyl-3β,16α, 21β,22α, 28-pentahydroxyolean-12-ene]
% inhibition of Fibronectin secretion [3, 9]: 39%

C/C=C(/C)C(=O)O[C@H]1[C@H](OC(=O)C(C)C)[C@@]2(CO)C(CC1(C)C)C1=CCC3[C@@]4(C)CC[C@H](O[C@@H]5OC(C(=O)O)[C@@H](O)C(O[C@@H]6O[C@@H](CO)C(O)C6O)C5O[C@@H]5OC(CO)[C@H](O)C(O)C5O)C(C)(C)C4CC[C@@]3(C)[C@]1(C)[C@@H](O)[C@H]2O (stereo partly drawn) [Y0, 3-O-[β-D-galactopyranosyl(1→2)]-α-L-arabinofuranosyl(1→3)-β-D-glucuronopyranosyl-21-O-angeloyl, 22-O-(2-methylpropanoyl)-3β, 15α, 16α, 21β, 22α, 28-hexahydroxyolean-12-ene]
IC50, cytotoxic to Leishmania Major (promastigotes) ([1]; MTT assay, promastigotes): 25 µg/mL (≈ 22.1 µM)
% inhibition of Fibronectin secretion [3, 9]: 34%
